Experimental data published in patent publication US9249095B2, “2-methylthiopyrrolidines and their use for modulating bacterial quorum sensing” (priority 2011, dated 2016).

How the values were obtained:
LasR = LasR (Pseudomonas aeruginosa, UniProt P25084); details: Smith et al, reference 9; cited from earlier work
[1] = system: P. aeruginosa las AHL-mediated pathway (PlasI-lacZ reporter); assay: Anti-quorum sensing β-galactosidase assay, las biomonitor (PlasI-lacZ with lasR expressed in E. coli DH5α); format: cell-based, Pseudomonas aeruginosa; details: for effect on las activity / lasI promoter expression (in words): tested at 50-200 μg/mL against 2 μM 3-oxo-C12-AHL
Protocol: Anti-Quorum Sensing Assay (β-Galactosidase Assay). An overnight (O/N) culture of Escherichia coli DH5α harboring the plasmids pSC11, which contains a PlasI-lacZ translational fusion (24), and pJN105L, which contains a PBAD-lasR expression plasmid (25) grown in LB media (10 g tryptone, 5 g yeast extract, 5 g sodium chloride per liter) supplemented with ampillicin (100 μg/ml) and gentamycin (15 μg/ml), was diluted to an OD600 of 0.150. At this time, arabinose (0.2% w/v), N-3-(oxododecanoyl)homoserine lactone (3-oxo-C12-AHL; 2 μM), and either the compound under analysis or solvent (DMSO), was added to the culture (1.5 mL). A negative control containing only solvent and arabinose (0.2% w/v) was also assayed. The cultures were incubated with shaking for three hours at 37° C.
(§1) The conditions for the rhl biomonitor Escherichia coli DH5α harboring pECP61.5 plasmid, which contains Ptac-rhlR and PrhlA-lacZ (4), were essentially same except that the LB medium was only supplemented with ampillicin (100 μg/ml), the O/N culture was diluted to an OD600 of 0.150, induced with 1 mM IPTG, 2 μM C4—HSL and the compounds or the controls added when the OD600 reached 1.0. After incubation at 37° C. for 4 hours with shaking, β-galactosidase activity was assayed as described previously (28). Miller units were calculated as described (29). Assays were repeated at least twice. For each biological replicate, experimental triplicates were performed and the average percent activity calculated by dividing the average Miller units from the samples containing compound or extract by the average Miller units from the sample containing solvent and multiplying by 100. Significance of inhibition was determined using a paired two-tailed Student t-test.
(§2) Strains: E. coli DH5α harboring a PBAD-lasR expression plasmid and a PlasI-lacZ translational fusion plasmid was used as a biomonitor for the P. aeruginosa Las QS system, and e. coli XL-1Blue harboring a plasmid containing rhlA::lacZ translational fusion and Ptac-rhlR was used as a biomonitor for the P. aeruginosa Rhl QS system. V. harveyi strain B392 (MAV) was used.
Screening against las signaling. To determine the effect of the lactams (7, 16, and 17) and the cyclic azahemiacetal derivatives (10, 20 and 21) on the P. aeruginosa las AHL-mediated pathway, a las-dependent β-galactosidase reporter (PlasI-lacZ) was expressed with lasR in E. coli (24-25). […] The effect of synthetic compounds on the las activity was also compared with the addition of DMSO as a solvent. The propylthio lactam 7a and its azahemiacetal counterpart 10a were initially screened at a concentration of 100 μg/mL for their activity against the las system. […] This was dependent upon the addition of 2 μM of 3-oxo-C12-AHL. […] Cell growth was not inhibited by the addition of lactam and azahemiacetal compounds at the tested concentrations (data not shown).

Vibrio harveyi = assay: Luminescence assay in Vibrio harveyi; format: cell-based
Protocol: Luminescence Assay: Vibrio harveyi was grown in AB medium. A 2.5 mL aliquot of overnight culture of V. harveyi was added to 2.5 μL and 10 μL of each compound as well as the solvent. The compound was dissolved in water or DMSO to serve as a control. Growth and luminescence were measured simultaneously in a modified Spec20 for three hours. Growth was measured as OD600 and luminescence was recorded in light units (1 LU=6.51×10^8 quanta/sec/mL).
as §2

[2] = system: P. aeruginosa rhl AHL-mediated pathway (PrhlA-lacZ reporter); assay: Anti-quorum sensing β-galactosidase assay, rhl biomonitor (PrhlA-lacZ with rhlR expressed in E. coli); format: cell-based, Pseudomonas aeruginosa; details: for activity at 50 µg/mL / activity at 100 µg/mL / activity at 150 µg/mL / activity at 200 µg/mL: Escherichia coli, 4 h, read-out: Percent Activity ± Standard Deviation (PrhlA-lacZ expression relative to DMSO treated control); for effect on rhl activity (in words): tested at 50-200 μg/mL against 2 μM C4-AHL
Protocol: as §1, §2
Screening Against the rhl Pathway. To determine the effect of the lactams (7, 16, and 17) and the cyclic azahemiacetal derivatives (10, 20 and 21) on the P. aeruginosa rhl AHL-mediated pathways, a rhl-dependent β-galactosidase reporter (PrhlA-lacZ) was expressed with rhlR in E. coli (24-25). […] The lactam analogues 7a-d stimulated rhl QS activities at higher concentrations with moderate potency. […] The strong inhibition observed with propylthio 10a and hexylthio 10b azahemiacetal analogues having side chain lengths similar to C4-AHL is in agreement with the structure activity relationship reported for various synthetic AHL mimetics targeting RhlR (26).

[3] = Pseudomonas aeruginosa, read-out: inhibition of las activity
[4] = Pseudomonas aeruginosa, read-out: inhibition of las reporter activity

LasR, sequence (P25084 whole entry): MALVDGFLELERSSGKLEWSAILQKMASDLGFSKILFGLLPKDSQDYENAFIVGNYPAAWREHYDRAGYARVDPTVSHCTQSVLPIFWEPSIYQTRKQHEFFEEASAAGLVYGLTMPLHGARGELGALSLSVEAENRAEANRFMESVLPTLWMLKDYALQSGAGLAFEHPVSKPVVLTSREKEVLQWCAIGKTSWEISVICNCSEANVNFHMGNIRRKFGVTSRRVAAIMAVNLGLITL

| SMILES | effect on las activity / lasI promoter expression (in words) [1] | activity at 50 µg/mL [2] [%] | activity at 100 µg/mL [2] [%] | activity at 150 µg/mL [2] [%] | activity at 200 µg/mL [2] [%] | effect on rhl activity (in words) [2] | further results |
| --- | --- | --- | --- | --- | --- | --- | --- |
| CCCCCCCCCC(=O)CC(=O)NC1CCCCC1=O (stereo not shown) [3-oxo-C12-(2-aminocyclohexanone)] |  |  |  |  |  |  | antagonism of LasR system (in words) (LasR): strong antagonist |
| CCCCCCCCCC(=O)CC(=O)N[C@H]1CCOC1=O [3-oxo-C12-AHL, N-3-(oxododecanoyl)homoserine lactone, reference compound] | activated the PlasI-lacZ |  |  |  |  |  |  |
| N[C@@H](CCSCC1C(O)C(O)C(=O)N1Cc1ccccc1)C(=O)O (stereo partly shown) [BDOH] |  |  |  |  |  |  | anti-QS effect against V. harveyi (in words) (Vibrio harveyi): strong anti-QS effect |
| CCCSCC1CCC(=O)N1 (stereo not shown) [Compound 7a, 5-(Propylthiomethyl)pyrrolidin-2-one] | inhibited las activity at all concentrations tested | 104 ± 24 | 118 | 104 ± 13 | 108 ± 17 |  | inhibition at 100 µg/mL [1, 3]: ~28%; effect on las activity / lasI promoter expression (in words) ([1]; listed as OMPP): dosed dependent inhibition |
| CCCCCCSCC1CCC(=O)N1 (stereo not shown) [Compound 7b, 5-(Hexylthiomethyl)pyrrolidin-2-one] | dosed dependent inhibition | 126 ± 8 | 126 ± 29 | 130 ± 31 |  | most active |  |
| CCCCCCCCCSCC1CCC(=O)N1 (stereo not shown) [Compound 7c, 5-(Nonylthiomethyl)pyrrolidin-2-one] | greatest inhibition at all concentrations tested | 95 ± 3 | 115 ± 30 | 108 ± 12 | 137 ± 46 |  | inhibition at 50 µg/mL [1, 3]: 28% |
| CCCCCCCCCCCCSCC1CCC(=O)N1 (stereo not shown) [Compound 7d, 5-(Dodecylthiomethyl)pyrrolidin-2-one] | greatest inhibition at all concentrations tested | 103 ± 7 | 106 ± 6 | 109 ± 8 | 106 ± 5 |  | inhibition at 50 µg/mL [1, 3]: 48% |
| CCCSCC1CCC(O)N1 (stereo not shown) [Compound 10a, 5-(Propylthiomethyl)pyrrolidin-2-ol] |  | 121 ± 6 | 138 ± 3 |  | 9 | inhibited rhl activity | stimulation of las reporter activity ([1]; 50 μg/mL, 2 μM 3-oxo-C12-AHL): ~2.3 fold; enhancement of las reporter activity ([1]; 100 μg/mL, 2 μM 3-oxo-C12-AHL): 15%; inhibition at 150 µg/mL [1, 4]: 69%; inhibition at 200 µg/mL [1, 4]: 89%; anti-QS effect against V. harveyi (in words) (Vibrio harveyi): strong anti-QS effect |
| CCCCCCSCC1CCC(O)N1 (stereo not shown) [Compound 10b, 5-(Hexylthiomethyl)pyrrolidin-2-ol] | stimulated QS at 50 μg/mL but with much lesser potency | 26 |  |  |  | inhibited rhl activity | inhibition of las activity ([1]; all concentrations tested higher than 50 μg/mL): 100%; inhibition of rhl signaling (in words) ([2]; concentrations of 100 μg/mL and higher): completely inhibited |
| CCCCCCCCCSCC1CCC(O)N1 (stereo not shown) [Compound 10c, 5-(Nonanylthiomethyl)pyrrolidin-2-ol] | moderate activity | 93 ± 12 | 80 ± 13 | 100 ± 11 | 99 ± 3 | inactive |  |
| CCCCCCCCCCCCSCC1CCC(O)N1 (stereo not shown) [Compound 10d, 5-(Dodecylthiomethyl)pyrrolidin-2-ol] | moderate activity | 98 ± 13 | 93 ± 27 | 91 ± 8 | 96 ± 5 | inactive |  |
| CCCCCCSCC1NC(=O)C(O)C1O (stereo not shown) [Compound 16, 3,4-Dihydroxy-5-(hexylthiomethyl)pyrrolidin-2-one] | inhibit las activity at all concentrations tested but only with moderate potency | 132 ± 36 | 129 ± 10 | 148 ± 9 | 161 ± 7 | stimulated rhl activities with moderate potency |  |
| CCCCCCCCCSCC1NC(=O)C(O)C1O (stereo not shown) [Compound 17, 3,4-Dihydroxy-5-(nonylthiomethyl)pyrrolidin-2-one] | inhibit las activity at all concentrations tested but only with moderate potency | 106 ± 3 |  | 115 ± 11 | 135 ± 5 | stimulated rhl activities with moderate potency |  |
| CCCCCCSCC1NC(O)C(O)C1O (stereo not shown) [Compound 20, 3,4-Dihydroxy-5-(hexylthiomethyl)pyrrolidin-2-ol] | inhibit las activity at all concentrations tested but only with moderate potency | 94 ± 8 | 105 ± 3 | 109 ± 12 | 116 ± 18 | stimulated rhl activities with moderate potency |  |
| CCCCCCCCCSCC1NC(O)C(O)C1O (stereo not shown) [Compound 21, 3,4-Dihydroxy-5-(nonylthiomethyl)pyrrolidin-2-ol] | inhibit las activity at all concentrations tested but only with moderate potency | 98 ± 5 |  | 116 ± 9 | 121 ± 14 | stimulated rhl activities with moderate potency |  |
| CCCC(=O)N[C@H]1CCOC1=O [Compound C4-AHL, N-butanoyl-L-homoserine lactone, reference compound] |  |  |  |  |  | activated the rhl β-galactosidase reporter |  |
